Paper PMC12951562, “SH2scan: Mapping SH2 Domain-Ligand Binding Selectivity for Inhibitors and Degraders” (Journal of Medicinal Chemistry, 2026)
Like-named read-outs stand apart in the source and are kept apart here. Non-standard residues stand in square brackets, D forms with d. Residues, ends and D or L forms follow the SMILES beside them. *: point of attachment. pY = N[C@@H](Cc1ccc(OP(=O)(O)O)cc1)C(=O)O; Caffeoyl = O=C(/C=C/c1ccc(O)c(O)c1)*

Experiments:
Assay in all cases: biochemical
Format in all cases: binding
[1] = target: T1, SRC (Homo sapiens, UniProt P12931); conditions: for remaining activity at 10 µM: read-out: percent of DMSO vehicle control
T1 construct: made in house; host or cells: HEK293 (transient transfection), unpurified extract
T1 sequence (P12931 whole entry): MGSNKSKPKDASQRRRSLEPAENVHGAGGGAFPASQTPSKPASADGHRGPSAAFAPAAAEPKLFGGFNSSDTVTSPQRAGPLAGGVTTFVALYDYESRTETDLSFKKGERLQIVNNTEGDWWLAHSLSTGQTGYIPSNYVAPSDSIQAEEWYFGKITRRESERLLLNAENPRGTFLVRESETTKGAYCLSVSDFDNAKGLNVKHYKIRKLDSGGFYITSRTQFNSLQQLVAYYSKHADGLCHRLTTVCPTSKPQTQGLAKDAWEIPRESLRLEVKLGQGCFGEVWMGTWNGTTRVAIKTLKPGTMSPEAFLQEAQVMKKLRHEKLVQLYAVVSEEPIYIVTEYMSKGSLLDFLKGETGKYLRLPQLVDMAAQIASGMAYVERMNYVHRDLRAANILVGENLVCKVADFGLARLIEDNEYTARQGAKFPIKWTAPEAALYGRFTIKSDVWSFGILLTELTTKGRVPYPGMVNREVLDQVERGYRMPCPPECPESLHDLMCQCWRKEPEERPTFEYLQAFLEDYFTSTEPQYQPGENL

[2] = target: T2, SHC1 (Homo sapiens, UniProt P29353); conditions: for remaining activity at 10 µM: read-out: percent of DMSO vehicle control
T2 construct: made in house; host or cells: HEK293 (transient transfection), unpurified extract
T2 sequence (P29353 1-583): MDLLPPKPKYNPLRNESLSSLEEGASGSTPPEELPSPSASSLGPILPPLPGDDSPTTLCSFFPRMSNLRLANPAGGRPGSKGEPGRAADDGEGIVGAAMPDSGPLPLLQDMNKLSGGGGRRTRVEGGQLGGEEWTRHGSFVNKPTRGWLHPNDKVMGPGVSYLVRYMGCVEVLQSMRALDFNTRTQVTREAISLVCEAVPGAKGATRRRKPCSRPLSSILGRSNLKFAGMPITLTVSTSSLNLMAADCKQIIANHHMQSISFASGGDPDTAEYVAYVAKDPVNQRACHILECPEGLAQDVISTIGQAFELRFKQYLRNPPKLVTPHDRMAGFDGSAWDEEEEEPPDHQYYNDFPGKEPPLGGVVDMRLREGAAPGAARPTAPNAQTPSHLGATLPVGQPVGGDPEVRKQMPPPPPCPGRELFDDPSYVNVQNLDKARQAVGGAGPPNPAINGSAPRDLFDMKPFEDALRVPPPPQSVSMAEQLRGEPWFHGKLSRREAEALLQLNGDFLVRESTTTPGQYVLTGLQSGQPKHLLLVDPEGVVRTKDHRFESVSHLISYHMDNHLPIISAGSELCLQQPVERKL

[3] = target: T3, STAP1 (Homo sapiens, UniProt Q9ULZ2); conditions: read-out: percent of DMSO vehicle control
T3 construct: made in house; host or cells: HEK293 (transient transfection), unpurified extract
T3 sequence (Q9ULZ2 1-295): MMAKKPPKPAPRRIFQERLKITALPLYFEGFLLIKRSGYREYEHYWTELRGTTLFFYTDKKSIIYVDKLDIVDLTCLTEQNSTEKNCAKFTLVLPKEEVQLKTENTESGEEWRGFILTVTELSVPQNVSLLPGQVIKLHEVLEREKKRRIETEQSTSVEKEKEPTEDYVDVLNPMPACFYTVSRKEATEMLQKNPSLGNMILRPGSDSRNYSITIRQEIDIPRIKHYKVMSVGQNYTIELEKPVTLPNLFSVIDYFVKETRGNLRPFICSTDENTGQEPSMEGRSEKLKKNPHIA

[4] = target: T4, SOCS7 (Homo sapiens, UniProt O14512); conditions: for remaining activity at 10 µM: read-out: percent of DMSO vehicle control
T4 construct: made in house; host or cells: HEK293 (transient transfection), unpurified extract
T4 sequence (O14512 1-581): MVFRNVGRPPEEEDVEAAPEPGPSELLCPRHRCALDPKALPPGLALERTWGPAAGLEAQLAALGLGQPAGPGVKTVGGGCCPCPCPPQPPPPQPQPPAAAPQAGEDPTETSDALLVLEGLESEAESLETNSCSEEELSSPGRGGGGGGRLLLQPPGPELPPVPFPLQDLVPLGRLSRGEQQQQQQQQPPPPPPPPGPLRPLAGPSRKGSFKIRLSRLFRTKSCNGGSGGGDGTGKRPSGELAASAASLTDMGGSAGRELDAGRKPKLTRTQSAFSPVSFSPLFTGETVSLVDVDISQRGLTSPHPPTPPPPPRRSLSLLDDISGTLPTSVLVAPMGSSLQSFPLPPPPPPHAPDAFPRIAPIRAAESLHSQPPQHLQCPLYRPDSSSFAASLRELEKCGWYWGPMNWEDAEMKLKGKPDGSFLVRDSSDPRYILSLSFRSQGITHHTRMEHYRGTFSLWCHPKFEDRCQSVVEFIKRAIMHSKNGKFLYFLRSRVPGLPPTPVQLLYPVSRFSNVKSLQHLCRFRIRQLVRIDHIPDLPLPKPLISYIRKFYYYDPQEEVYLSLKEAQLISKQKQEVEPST

[5] = target: T5, NCK2 (Homo sapiens, UniProt O43639); conditions: for remaining activity at 10 µM: read-out: percent of DMSO vehicle control
T5 construct: the DNA-tagged SH2 domain concentrations used in this study were <0.1 nM; made in house; host or cells: HEK293 (transient transfection, unpurified extract)
T5 sequence (O43639 285-380 limits assumed): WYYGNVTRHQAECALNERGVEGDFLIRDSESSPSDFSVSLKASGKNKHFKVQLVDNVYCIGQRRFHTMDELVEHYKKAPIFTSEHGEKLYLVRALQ

[6] = target: T6, CSK (Homo sapiens, UniProt P41240); conditions: for percent of DMSO vehicle control: primary screen, 10 μM
T6 construct: the DNA-tagged SH2 domain concentrations used in this study were <0.1 nM; made in house; host or cells: HEK293 (transient transfection; unpurified extract)
T6 sequence (P41240 82-171 limits assumed): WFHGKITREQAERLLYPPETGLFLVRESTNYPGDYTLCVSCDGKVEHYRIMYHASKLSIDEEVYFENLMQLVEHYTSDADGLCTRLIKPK

[7] = target: T7, RASA1(SH2dom.C-term.) (Homo sapiens, UniProt P20936); conditions: read-out: percent of DMSO vehicle control
T7 construct: SH2dom.C-term. denotes SH2 domain closest to C-terminus of protein; made in house; host or cells: HEK293 (transient transfection, unpurified extract)
T7 sequence (P20936 351-441 limits assumed): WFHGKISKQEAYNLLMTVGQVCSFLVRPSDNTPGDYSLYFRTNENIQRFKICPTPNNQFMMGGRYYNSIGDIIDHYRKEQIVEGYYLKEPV

[8] = target: T8, PLCG2(SH2dom.C-term.) (Homo sapiens, UniProt P16885); conditions: for remaining activity at 10 µM: read-out: percent of DMSO vehicle control
T8 construct: SH2dom.C-term. denotes SH2 domain closest to C-terminus of protein; made in house; host or cells: HEK293 (transient transfection, unpurified extract)
T8 sequence (P16885 646-735 limits assumed): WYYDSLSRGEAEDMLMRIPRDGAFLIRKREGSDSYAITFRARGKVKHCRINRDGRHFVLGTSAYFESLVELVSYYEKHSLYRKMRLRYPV

[9] = target: T9, STAT2 (Homo sapiens, UniProt P52630); conditions: for remaining activity at 10 µM: primary screen
T9 construct: made in house; host or cells: HEK293 (transient transfection), unpurified extract
T9 sequence (P52630 whole entry): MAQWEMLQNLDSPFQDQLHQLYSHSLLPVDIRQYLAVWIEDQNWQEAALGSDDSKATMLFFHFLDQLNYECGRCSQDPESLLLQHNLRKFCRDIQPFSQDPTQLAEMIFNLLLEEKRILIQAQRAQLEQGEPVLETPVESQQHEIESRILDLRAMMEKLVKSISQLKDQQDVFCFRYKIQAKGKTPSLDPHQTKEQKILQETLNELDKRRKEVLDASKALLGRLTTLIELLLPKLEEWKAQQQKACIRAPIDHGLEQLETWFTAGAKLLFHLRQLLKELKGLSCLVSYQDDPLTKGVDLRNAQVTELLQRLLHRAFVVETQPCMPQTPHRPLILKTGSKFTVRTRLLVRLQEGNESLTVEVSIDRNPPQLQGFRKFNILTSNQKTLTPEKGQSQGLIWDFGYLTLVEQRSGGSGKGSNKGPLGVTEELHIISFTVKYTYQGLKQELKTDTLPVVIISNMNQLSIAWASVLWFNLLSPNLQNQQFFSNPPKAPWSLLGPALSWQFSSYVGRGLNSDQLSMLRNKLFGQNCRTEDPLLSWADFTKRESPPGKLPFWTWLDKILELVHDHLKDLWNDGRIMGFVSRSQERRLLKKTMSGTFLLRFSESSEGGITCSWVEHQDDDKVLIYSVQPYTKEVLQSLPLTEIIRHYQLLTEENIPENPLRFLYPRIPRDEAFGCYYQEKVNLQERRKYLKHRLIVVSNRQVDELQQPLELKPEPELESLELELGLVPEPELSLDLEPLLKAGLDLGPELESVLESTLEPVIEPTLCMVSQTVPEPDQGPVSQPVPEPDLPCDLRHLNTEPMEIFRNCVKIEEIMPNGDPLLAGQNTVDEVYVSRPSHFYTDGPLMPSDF

[10] = target: T10, CRK (Homo sapiens, UniProt P46108); conditions: for remaining activity at 10 µM: primary screen
T10 construct: the DNA-tagged SH2 domain concentrations used in this study were <0.1 nM; made in house; host or cells: HEK293 (transient transfection; unpurified extract)
T10 sequence (P46108 13-118 limits assumed): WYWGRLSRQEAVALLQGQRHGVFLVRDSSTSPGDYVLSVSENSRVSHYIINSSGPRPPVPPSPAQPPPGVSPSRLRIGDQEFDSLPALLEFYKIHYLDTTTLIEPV

[11] = target: T11, GRB7 (Homo sapiens, UniProt Q14451); conditions: for remaining activity at 10 µM: primary screen
T11 construct: the DNA-tagged SH2 domain concentrations used in this study were <0.1 nM; made in house; host or cells: HEK293 (transient transfection; unpurified extract)
T11 sequence (Q14451 431-527 limits assumed): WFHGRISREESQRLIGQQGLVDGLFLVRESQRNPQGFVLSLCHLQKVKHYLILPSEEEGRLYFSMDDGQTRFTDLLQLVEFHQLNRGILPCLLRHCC

[12] = target: T12, PLCG1(SH2dom.N-term.) (Homo sapiens, UniProt P19174); conditions: for remaining activity at 10 µM: read-out: percent of DMSO vehicle control
T12 construct: SH2dom.N-term. denotes SH2 domain closest to N-terminus of protein; made in house; host or cells: HEK293 (transient transfection, unpurified extract)
T12 sequence (P19174 550-657 limits assumed): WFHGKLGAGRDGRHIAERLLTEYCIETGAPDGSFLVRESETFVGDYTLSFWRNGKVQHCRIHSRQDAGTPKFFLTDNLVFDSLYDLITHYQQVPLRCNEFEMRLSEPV

[13] = read-out: percent of DMSO vehicle control

Row | Compound | remaining activity at 10 µM ([1]; primary screen, 10 μM) [%] | remaining activity at 10 µM ([2]; primary screen, 10 μM) [%] | remaining activity at 10 µM ([3]; primary screen, 10 μM) [%] | remaining activity at 10 µM ([4]; primary screen, 10 μM) [%] | remaining activity at 10 µM ([5]; primary screen, 10 μM) [%] | percent of DMSO vehicle control [6] [%] | remaining activity at 10 µM ([7]; primary screen, 10 μM) [%] | remaining activity at 10 µM ([8]; primary screen, 10 μM) [%] | remaining activity at 10 µM [9, 13] [%] | remaining activity at 10 µM [10, 13] [%] | remaining activity at 10 µM [11, 13] [%] | remaining activity at 10 µM ([12]; primary screen, 10 μM) [%] | further results
1 | O=C(CCl)Nc1cccc(CNC(=O)[C@H](Cc2ccc(OP(=O)(O)O)cc2)NC(=O)Cc2ccc(F)cc2)c1 [MN551] | 70.2 ± 6.8 | 112 | 84.3 ± 2.8 | 21.9 ± 5 | 81.5 ± 3 | 105.0 | 107 | 133 | 217 | 72.1 ± 0.5 | 71.3 ± 3.5 | 62.8 ± 3.8 | Kd ([4]; dose-response, read-out: KD): 8100 nM
2 | CC[C@H](C)[C@H](NC(=O)[C@H](CCC(=O)O)NC(=O)[C@H](CCC(=O)O)NC(=O)[C@H](Cc1ccc(OP(=O)(O)O)cc1)NC(=O)/C=C/c1ccc(O)c(O)c1)C(=O)N[C@@H](CCC(=O)O)C(=O)O [Caffeic acid-pYEEIE] (Caffeoyl-[pY]EEIE-OH) |  |  |  |  |  | 103.0±4.8 |  |  |  |  |  |  | Kd [1]: 4.8 ± 1.3 nM; remaining activity at 10 µM [1]: 0%; Kd [2]: 320 ± 280 nM; remaining activity at 10 µM [2]: 0%; remaining activity at 10 µM [3]: 77.9 ± 1%; Kd [4]: 280 ± 140 nM; remaining activity at 10 µM [4]: 0.5 ± 0.4%; Kd [5]: 210 ± 59 nM; remaining activity at 10 µM [5]: 2.8 ± 3.1%; remaining activity at 10 µM [7]: 78 ± 6.4%; Kd [8]: 660 ± 700 nM; remaining activity at 10 µM [8]: 1.1 ± 0.1%; Kd [9]: 3.6 ± 0.18 nM; percent of DMSO vehicle control at 10 µM [9, 13]: 0%; Kd [10]: 2300 ± 670 nM; percent of DMSO vehicle control at 10 µM [10, 13]: 3.1 ± 2.8%; Kd [11]: 6100 ± 320 nM; percent of DMSO vehicle control at 10 µM [11, 13]: 0.2 ± 0.1%; Kd [12]: 180 ± 200 nM; remaining activity at 10 µM [12]: 0.3%
3 | C/C(=C\C(=O)N[C@H](C(=O)N1CCC[C@H]1C(=O)N(c1ccccc1)c1ccc(I)cc1)C(C)(C)C)c1ccc(OP(=O)(O)O)cc1 [STAT6-IN-1] | 53.3 ± 8.1 | 48.2 ± 4.5 | 65.6 ± 5.1 | 34.6 ± 0.1 | 66.2 ± 8.2 | 26.3±0.8 | 76.6 ± 7.8 | 7.5 ± 0.6 | 35.1 ± 16.6 | 34.5 ± 1.8 | 47.7 ± 4.2 | 0.3 ± 0.1 | KD ([4]; dose-response): No Hit; Kd ([6]; dose-response, read-out: KD): 3050 ± 490 nM; Kd ([8]; dose-response, read-out: KD): 3800 ± 500 nM; Kd ([10]; dose-response, read-out: KD): 2004 ± 5.9 nM; Kd ([12]; dose-response, read-out: KD): 890 ± 720 nM
4 | O=C(COc1ccc2cc(C(=O)Nc3ccccc3)ccc2c1)NCc1ccc(OP(=O)(O)O)c(OP(=O)(O)O)c1 [Stafib-1] | 90.6 ± 5.2 | 67.3 ± 22.1 | 92 ± 6.8 | 81 ± 17.8 | 91.4 ± 35.1 | 111.7±5.5 | 97 ± 11.7 | 80.4 ± 8.2 | 153 | 90.2 ± 5.9 | 57.9 ± 22.2 | 82.6 ± 20.2 | Kd ([9]; dose-response, read-out: KD): 9300 ± 4300 nM
